Test results published in PubChem BioAssay (NCI).
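Following 48 hours of exposure in 96-well plates, responses at five concentrations were used to interpolate endpoints linearly. TGI denotes the concentration required for complete inhibition of growth.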

Experiments:
Assay in all cases: NCI-60 cell line screen, 48 h
[1] = system: 786-0 renal
[2] = system: A498 renal
[3] = system: A549 NSCLC
[4] = system: ACHN renal
[5] = system: BT-549 breast
[6] = system: COLO 205 colon
[7] = system: EKVX NSCLC
[8] = system: HCC-2998 colon
[9] = system: HCT-116 colon
[10] = system: HCT-15 colon
[11] = system: HL-60(TB) leukemia
[12] = system: HOP-62 NSCLC
[13] = system: HS 578T breast
[14] = system: HT29 colon
[15] = system: IGROV1 ovarian
[16] = system: K-562 leukemia
[17] = system: KM12 colon
[18] = system: LOX IMVI melanoma
[19] = system: MALME-3M melanoma
[20] = system: MCF7 breast
[21] = system: MDA-MB-231 breast
[22] = system: MDA-MB-435
[23] = system: MDA-N
[24] = system: MOLT-4 leukemia
[25] = system: NCI-H23 lung
[26] = system: NCI-H460 lung
[27] = system: NCI-H522 lung
[28] = system: NCI/ADR-RES ovarian
[29] = system: OVCAR-3 ovarian
[30] = system: OVCAR-5 ovarian
[31] = system: OVCAR-8 ovarian
[32] = system: PC-3 prostate
[33] = system: RPMI-8226 leukemia
[34] = system: SF-295 CNS
[35] = system: SF-539 CNS
[36] = system: SK-MEL-2 melanoma
[37] = system: SK-MEL-28 melanoma
[38] = system: SK-MEL-5 melanoma
[39] = system: SN12C renal
[40] = system: SNB-19 CNS
[41] = system: SR leukemia
[42] = system: SW-620 colon
[43] = system: T-47D breast
[44] = system: TK-10 renal
[45] = system: U251 CNS
[46] = system: UACC-257 melanoma
[47] = system: UACC-62 melanoma
[48] = system: UO-31 renal
[49] = system: CAKI-1 renal
[50] = system: CCRF-CEM leukemia
[51] = system: DU-145 prostate
[52] = system: HOP-92 NSCLC
[53] = system: M14 melanoma
[54] = system: NCI-H226 lung
[55] = system: OVCAR-4 ovarian
[56] = system: RXF 393 renal
[57] = system: SF-268 CNS
[58] = system: SK-OV-3 ovarian
[59] = system: SNB-75 CNS

Measured: TGI

N[C@@H](CCC(=O)NC(Cc1ccccc1)C(=O)NCP(=O)(O)O)C(=O)O (stereo partly specified)
not listed: [49] | [50] | [51] | [52] | [53] | [54] | [55] | [56] | [57] | [58] | [59]
> 100 µM: all other assays above

O=C(Nc1ccccc1)N1CCN(C(=O)Nc2ccccc2)C1=S
70.5 µM: [54]
41.5 µM: [35]
76.3 µM: [58]
58.4 µM: [34]
55.4 µM: [25]
7.64 µM: [2]
47.2 µM: [59]
63.5 µM: [52]
43.6 µM: [56]
67.9 µM: [12]
47.8 µM: [57]
60.7 µM: [48]
not listed: [20] | [30] | [32] | [40] | [47]
> 100 µM: all other assays above

O=C1/C(=C/c2ccccc2)Oc2cc(O)ccc21
not listed: [2] | [18] | [19] | [30] | [36] | [52]
> 100 µM: all other assays above

CCOC(=O)c1c(N)sc2c1C(C(=O)OCC)CCCC2 (stereo unspecified)
75.8 µM: [2]
78.3 µM: [43]
not listed: [18] | [22] | [27] | [28] | [29] | [34] | [35] | [49] | [50] | [51] | [55] | [57] | [58]
> 100 µM: all other assays above
